Experimental data published in the Kinase Knowledgebase extract (Sharma et al. 2016).

biological target: CDK2 (human) (UniProt P24941); test: Enzyme Assay

| SMILES | IC50 |
| --- | --- |
| O=C(CC1CC1)Nc1c[nH]nc1-c1nc2cc(CN3CCOCC3)ccc2[nH]1 | < 1000 nM |
| COc1cc2nc(-c3n[nH]cc3NC(=O)c3ccoc3CN(C)C)[nH]c2cc1OC | < 1000 nM |
| O=C(Nc1c[nH]nc1-c1nc2cc(CN3CCOCC3)ccc2[nH]1)NN1CCOCC1 | < 1000 nM |
| O=C(Nc1c[nH]nc1-c1nc2cc(CN3CCOCC3)ccc2[nH]1)C1CCCO1 (configuration not stated) | < 1000 nM |
| O=C(Nc1cc(F)ccc1F)Nc1c[nH]nc1-c1nc2cc(CN3CCOCC3)ccc2[nH]1 | < 1000 nM |
| CN(C)NC(=O)Nc1c[nH]nc1-c1nc2cc(CN3CCOCC3)ccc2[nH]1 | < 1000 nM |
| O=C(Nc1c[nH]nc1-c1nc2cc(CN3CCOCC3)ccc2[nH]1)Nc1c(F)cc(F)cc1F | < 1000 nM |
| COc1ccc(C#N)cc1C(=O)Nc1c[nH]nc1-c1nc2cc(CN3CCOCC3)ccc2[nH]1 | < 1000 nM |
| COc1cc2nc(-c3n[nH]cc3NC(=O)c3cc(Cl)cc(N4CCN(C)CC4)c3)[nH]c2cc1OC | < 1000 nM |
| O=C(Nc1ccc(F)cc1F)Nc1c[nH]nc1-c1nc2cc(CN3CCOCC3)ccc2[nH]1 | < 1000 nM |
| COc1ccc(Cl)cc1C(=O)Nc1c[nH]nc1-c1nc2cc(CN3CCN(C)CC3)ccc2[nH]1 | < 1000 nM |
| O=C(Nc1c[nH]nc1-c1nc2cc(CN3CCOCC3)ccc2[nH]1)NN1CCCC1 | < 1000 nM |
